Measurements published in PubChem BioAssay AID1963968 (Molecular Pharmacology Branch, DTP, NCI, 2024).

System: 945468-187-T-J3-PDC spheroids with HUVEC/MSC, viability
Test: Anticancer human tumor 945468-187-T-J3-PDC patient-derived rectal carcinoma cell line growth inhibition [PI3K]
Conditions: for IC50: curve of first compound; for viability, T/C: stronger effect = lower value
How it was run: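 Complex 3D spheroids (cancer cells + endothelial HUVEC + mesenchymal stem cells); drug pairs of targeted agent x inavolisib/alpelisib/duvelisib/copanlisib; half-log series from ~Cmax, max 10 microM if Cmax unknown; endpoint viability.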
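Also: spheroids exposed to agents for 7 days before viability read.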
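For viability, T/C in this document: 100% = DMSO vehicle control viability.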

SMILES: CC(C)n1nc(-c2ccc3oc(N)nc3c2)c2c(N)ncnc21 + COc1c(OCCCN2CCOCC2)ccc2c3n(c(=NC(=O)c4cnc(N)nc4)nc12)CCN3
- IC50 (second compound 0.00316 µM): 76.1 nM
- IC50 (second compound 0.01 µM): 62.6 nM
- IC50 (second compound 0.0316 µM): 25.6 nM
- IC50 (second compound 0.1 µM): < 0.316 nM
- IC50 (second compound 0.316 µM): < 0.316 nM
- IC50 (second compound 1 µM): < 0.316 nM
- viability, T/C (second compound 0.00316 µM, first compound 0.000316 µM): 104%
- viability, T/C (second compound 0.00316 µM, first compound 0.001 µM): 85.7%
- viability, T/C (second compound 0.00316 µM, first compound 0.00316 µM): 95.1%
- viability, T/C (second compound 0.00316 µM, first compound 0.01 µM): 78.7%
- viability, T/C (second compound 0.00316 µM, first compound 0.0316 µM): 92.8%
- viability, T/C (second compound 0.00316 µM, first compound 0.1 µM): 37.2%
- viability, T/C (second compound 0.01 µM, first compound 0.000316 µM): 97.2%
- viability, T/C (second compound 0.01 µM, first compound 0.001 µM): 81.2%
- viability, T/C (second compound 0.01 µM, first compound 0.00316 µM): 93.9%
- viability, T/C (second compound 0.01 µM, first compound 0.01 µM): 86.2%
- viability, T/C (second compound 0.01 µM, first compound 0.0316 µM): 90.4%
- viability, T/C (second compound 0.01 µM, first compound 0.1 µM): 22.7%
- viability, T/C (second compound 0.0316 µM, first compound 0.000316 µM): 88.7%
- viability, T/C (second compound 0.0316 µM, first compound 0.001 µM): 77.2%
- viability, T/C (second compound 0.0316 µM, first compound 0.00316 µM): 85%
- viability, T/C (second compound 0.0316 µM, first compound 0.01 µM): 78.4%
- viability, T/C (second compound 0.0316 µM, first compound 0.0316 µM): 43.6%
- viability, T/C (second compound 0.0316 µM, first compound 0.1 µM): 17.1%
- viability, T/C (second compound 0.1 µM, first compound 0.000316 µM): 46%
- viability, T/C (second compound 0.1 µM, first compound 0.001 µM): 34%
- viability, T/C (second compound 0.1 µM, first compound 0.00316 µM): 33.9%
- viability, T/C (second compound 0.1 µM, first compound 0.01 µM): 26.2%
- viability, T/C (second compound 0.1 µM, first compound 0.0316 µM): 20.2%
- viability, T/C (second compound 0.1 µM, first compound 0.1 µM): 13.6%
- viability, T/C (second compound 0.316 µM, first compound 0.000316 µM): 20.6%
- viability, T/C (second compound 0.316 µM, first compound 0.001 µM): 21.3%
- viability, T/C (second compound 0.316 µM, first compound 0.00316 µM): 21.6%
- viability, T/C (second compound 0.316 µM, first compound 0.01 µM): 17.6%
- viability, T/C (second compound 0.316 µM, first compound 0.0316 µM): 16.6%
- viability, T/C (second compound 0.316 µM, first compound 0.1 µM): 13.7%
- viability, T/C (second compound 1 µM, first compound 0.000316 µM): 18.5%
- viability, T/C (second compound 1 µM, first compound 0.001 µM): 15.9%
- viability, T/C (second compound 1 µM, first compound 0.00316 µM): 14.1%
- viability, T/C (second compound 1 µM, first compound 0.01 µM): 13.2%
- viability, T/C (second compound 1 µM, first compound 0.0316 µM): 12.6%
- viability, T/C (second compound 1 µM, first compound 0.1 µM): 10.5%
